Among the test systems are SNB-19 CNS; UO-31 renal; SF-268 CNS; IGROV1 ovarian; SK-MEL-5 melanoma; SK-MEL-2 melanoma; RPMI-8226 leukemia; SW-620 colon; HOP-18 NSCLC; DLD-1 colon; DMS 114 small cell lung.
What all share (assay): NCI-60 cell line screen, 48 h

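Method: 48-hour compound exposure of cells in 96-well plates, five concentrations, linear interpolation of endpoints. Here, GI50 denotes the concentration required for 50% inhibition of growth. TGI is the concentration that stops growth completely.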

Consider `c1ccc(C2=NN[C@H](c3cn(-c4ccccc4)nc3-c3ccccc3)C2)cc1`, for which the GI50 in the assay on SNB-19 CNS was 5.05 µM; in the assay with UO-31 renal, 2.87 µM; in the assay on SF-268 CNS, 5.98 µM; in the assay with IGROV1 ovarian, 5.57 µM; in the assay on SK-MEL-5 melanoma it was 7.66 µM; with SK-MEL-2 melanoma, 30.2 µM. Moreover, the values for the GI50 with RPMI-8226 leukemia and in the assay with SW-620 colon were over 100 µM and 9.34 µM, respectively. Also, the TGI in the assay on SNB-19 CNS, in the assay with UO-31 renal, in the assay on SF-268 CNS, in the assay on IGROV1 ovarian, in the assay on SK-MEL-5 melanoma and with SK-MEL-2 melanoma was over 100 µM in each case. In addition, the TGI in the assay with RPMI-8226 leukemia and with SW-620 colon was over 100 µM in each case.

Take `C=CCCCCn1c2ccccc2c2c(C)c3c[n+](C)ccc3c(C)c21`: the TGI in the assay with HOP-18 NSCLC worked out at 1.15 µM; in the assay on SNB-19 CNS, 1.73 µM; in the assay with UO-31 renal, 19.4 µM; in the assay on DLD-1 colon it was 2.52 µM; in the assay on DMS 114 small cell lung, 0.811 µM; with SF-268 CNS, 1.56 µM. Besides, the TGI was 1.4 µM with IGROV1 ovarian; 1.36 µM with SK-MEL-5 melanoma; 1.52 µM in the assay with SK-MEL-2 melanoma; 1.43 µM with RPMI-8226 leukemia; 1.34 µM in the assay on SW-620 colon.

In the case of `Cc1cc(=O)[nH]c(NN2C(Cl)C(=O)C2c2c(O)ccc3ccccc23)n1` (stereo not drawn), the TGI is 53.5 µM with HOP-18 NSCLC; 77.6 µM in the assay with SNB-19 CNS; over 100 µM in the assay on UO-31 renal; 56 µM in the assay on DMS 114 small cell lung; over 100 µM in the assay on SF-268 CNS; over 100 µM in the assay on IGROV1 ovarian. Also, the TGI is 29.9 µM in the assay on SK-MEL-5 melanoma, 30.2 µM in the assay on SK-MEL-2 melanoma, 53.5 µM with RPMI-8226 leukemia and over 100 µM in the assay with SW-620 colon.

With `Clc1ccc2c(Cl)nc(-c3ccccc3)nc2c1`, the TGI with SNB-19 CNS was over 100 µM; in the assay on UO-31 renal it was over 100 µM; with DLD-1 colon it was over 100 µM; with DMS 114 small cell lung, 74 µM; in the assay on SF-268 CNS it was over 100 µM; in the assay with IGROV1 ovarian, over 100 µM. Besides, the TGI in the assay on SK-MEL-5 melanoma was 82.4 µM; in the assay on SK-MEL-2 melanoma, 95 µM; with RPMI-8226 leukemia, 55.3 µM; in the assay on SW-620 colon, over 100 µM.

Take `CCCCCCCSCC1OC(n2cnc3c(N)ncnc32)C(O)C1O` (stereo not drawn): the TGI in the assay with HOP-18 NSCLC was 68.2 µM; in the assay on SNB-19 CNS it was over 100 µM; with DLD-1 colon, 28.7 µM; in the assay on DMS 114 small cell lung, 71.1 µM; in the assay on SF-268 CNS it was over 100 µM; with IGROV1 ovarian, 41.8 µM. For the same compound, the TGI in the assay with SK-MEL-5 melanoma turned out to be 30.8 µM; in the assay on SK-MEL-2 melanoma it was 44.8 µM; with RPMI-8226 leukemia, 69 µM; in the assay with SW-620 colon it was 46.5 µM.

Regarding `Oc1c2c(c3c4c1N=CC=4CCN=3)C1(C=C(Br)C(O)C(Br)=C1)CCN2` (stereo not drawn), the TGI is 23.5 µM in the assay on HOP-18 NSCLC; over 34.8 µM in the assay with SNB-19 CNS; 28 µM in the assay on UO-31 renal; 3.95 µM with DLD-1 colon; 0.718 µM in the assay on DMS 114 small cell lung; 5.75 µM with SF-268 CNS. The TGI in the assay with IGROV1 ovarian came out at 2.86 µM; in the assay with SK-MEL-5 melanoma, 2.67 µM; in the assay with SK-MEL-2 melanoma, 11.8 µM; in the assay on RPMI-8226 leukemia it was 7.41 µM; in the assay on SW-620 colon, 4.19 µM.

The values are drawn from PubChem BioAssay (NCI).
